Test [1] addresses T1, hAT1R (Homo sapiens, UniProt P30556).
T1 sequence (P30556 1-359): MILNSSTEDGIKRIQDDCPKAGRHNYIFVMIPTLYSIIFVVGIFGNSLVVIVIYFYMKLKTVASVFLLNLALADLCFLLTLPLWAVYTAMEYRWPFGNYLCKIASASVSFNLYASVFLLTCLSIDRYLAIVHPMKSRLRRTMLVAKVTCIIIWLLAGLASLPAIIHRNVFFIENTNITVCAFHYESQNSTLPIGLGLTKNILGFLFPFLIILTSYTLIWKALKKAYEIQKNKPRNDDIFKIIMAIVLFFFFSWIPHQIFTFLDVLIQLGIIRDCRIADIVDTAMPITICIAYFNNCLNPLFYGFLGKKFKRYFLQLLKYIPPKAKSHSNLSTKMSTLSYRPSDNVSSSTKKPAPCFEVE
Briefly: cell-based. The following applies: agonist mode; for EC50: read-out: BRET P63 EC50.

Test [2] deals with T1, hAT1R. The test is described as follows: cell-based. The following applies: section of the 42nd table ending at r951, example numbering restarts after the DiscoveRx section; read-out: β-arrestin2 EC50.
Test [3] deals with T1, hAT1R. Briefly: BRET β-arrestin2 biosensor assay, higher receptor expression (hAT1R 5 ng/well), HEK293 cells. To be noted: for EC50: High AT1R Expression. The class given is cell-based.
For test [4], the target named is T2, AGTR1 (Homo sapiens, UniProt P30556).
T2 construct: host or cells: Pathunter CHO-K1 AGTR1 β-arrestin cell line (CHO-K1)
T2 sequence (P30556 1-359): T1 sequence (P30556 1-359)
The test is described as follows: DiscoveRx β-arrestin2 recruitment assay (enzyme complementation, Pathunter CHO-K1 AGTR1 β-arrestin cell line). The class given is cell-based. To be noted: DiscoveRx β-arrestin2 recruitment; for DiscoveRx β-arrestin2 Ymax (%): maximal response. Summed up: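 Chemiluminescent enzyme-complementation read-out of β-arrestin2 recruitment to AGTR1 in engineered CHO-K1 cells after 90 min compound exposure at 37° C. Values are 4-parameter logistic EC50s in agonist mode, IC50s in antagonist mode, with efficacy relative to the maximal All response.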

Test [5] has as its target T1, hAT1R. Briefly: BRET Gq biosensor assay, agonist response, HEK293 cells. The class given is cell-based. To be noted: section of the 42nd table directly before the BRET P63 section. Summed up: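 Agonist EC50 derived from a 4-parameter fit of BRET2 ratio (GFP 515 nm/Rluc 410 nm), scaled between unstimulated control and maximal AngII response. Readings taken 5 min after compound addition at room temperature, with 2 μM coelenterazine, in HEK293 cells expressing hAT1R, Gαq-Rluc, Gβ1 and GFP-Gγ1 (transfected two days earlier).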

Bounds are passed on as bounds.

For the compound `CCCCc1nc(Cl)c(C(=O)O)n1Cc1ccc(-c2cc(-c3ccc(C(=O)N(C)C)cc3)ccc2-c2nn[nH]n2)cc1` [Example 390], in test [1], the “BRET P63 Ymax” value stood at 11.9%. The EC50 in test [1] turned out to be 127 nM; in test [2] it was 97 nM; in test [3], 24.4 nM; in test [4] it was 11.8 nM; in test [5] it was 23.7 nM. In addition, the “BRET β-Arrestin2 High AT1R Expression Ymax (%)” value in test [3] came out at 95.3%. The “DiscoveRx β-arrestin2 Ymax (%)” value in test [4] came to 53.5%.
`CCCCc1nc(Cl)c(C(=O)O)n1Cc1ccc(-c2cc(-c3ccccc3)ccc2-c2nn[nH]n2)cc1` [Example 384, 1-((6′-(2H-tetrazol-5-yl)-[1,1′:3′,1″-terphenyl]-4-yl)methyl)-2-butyl-4-chloro-1H-imidazole-5-carboxylic acid]: the EC50 in test [1] was more than 10000 nM; in test [2], 10.8 nM; in test [3], 6.9 nM; in test [4] it was 8 nM; in test [5], 39.1 nM. The “BRET β-Arrestin2 High AT1R Expression Ymax (%)” value in test [3] is 83.8%. In test [4], the “DiscoveRx β-arrestin2 Ymax (%)” value is 49.3%.
For `CCOc1nc2cccc(C(=O)O)c2n1Cc1ccc(-c2cc(-c3ccccc3)ccc2-c2nn[nH]n2)cc1` [Example 312, 1-((6′-(2H-tetrazol-5-yl)-[1,1′:3′,1″-terphenyl]-4-yl)methyl)-2-ethoxy-1H-benzo[d]imidazole-7-carboxylic acid], in test [1], the “BRET P63 Ymax” value was 9.4%. Further, the EC50 worked out at 17.2 nM in test [1]; 5.8 nM in test [2]; 2.6 nM in test [3]; 22.5 nM in test [4]; 20.7 nM in test [5]. Further, the “BRET β-Arrestin2 High AT1R Expression Ymax (%)” value in test [3] came out at 91.8%. Further, in test [4], the “DiscoveRx β-arrestin2 Ymax (%)” value was 79.9%.
Take `CCOc1nc2cccc(C(=O)O)c2n1Cc1ccc(-c2cc(-c3ccccc3)ccc2-c2noc(=O)[nH]2)cc1` [Example 311, 2-ethoxy-1-((6′-(5-oxo-4,5-dihydro-1,2,4-oxadiazol-3-yl)-[1,1′:3′,1″-terphenyl]-4-yl)methyl)-1H-benzo[d]imidazole-7-carboxylic acid]: the “BRET P63 Ymax” value in test [1] was 13.2%. The EC50 in test [1] is 3.6 nM; in test [2], 4.2 nM; in test [3], 1.5 nM; in test [4], 3.9 nM; in test [5] it was 18.1 nM. Besides, in test [3], the “BRET β-Arrestin2 High AT1R Expression Ymax (%)” value amounted to 92.0%. Moreover, the “DiscoveRx β-arrestin2 Ymax (%)” value in test [4] is reported as 77.6%.
Take `CCCCc1nc(Cl)c(C(=O)O)n1Cc1ccc(-c2cc(-c3cn(C(C)C)nc3C(F)(F)F)ccc2-c2nn[nH]n2)cc1` [Example 388]: in test [1], the “BRET P63 Ymax” value is on record as 30.4%. The EC50 in test [1] was found to be 39.8 nM; in test [2], 26.7 nM; in test [3], 4.6 nM; in test [4], 44.7 nM; in test [5], 810 nM. In test [3], the “BRET β-Arrestin2 High AT1R Expression Ymax (%)” value stood at 96.2%. In addition, the “DiscoveRx β-arrestin2 Ymax (%)” value in test [4] was found to be 71.7%.
`CCOc1nc2cccc(C(=O)O)c2n1Cc1ccc(-c2cc(-c3c[nH]c4ccccc34)ccc2-c2noc(=O)[nH]2)cc1` [Example 322]: the “BRET P63 Ymax” value in test [1] was found to be 5.1%. For the same compound, the EC50 amounted to 53.7 nM in test [1]; 9.7 nM in test [2]; 8.4 nM in test [3]; 39.2 nM in test [4]; 93.3 nM in test [5]. Besides, in test [3], the “BRET β-Arrestin2 High AT1R Expression Ymax (%)” value amounted to 80.9%. The “DiscoveRx β-arrestin2 Ymax (%)” value in test [4] amounted to 33.7%.
Regarding `CCCCc1nc(Cl)c(C(=O)O)n1Cc1ccc(-c2cc(-c3c[nH]c4ccccc34)ccc2-c2nn[nH]n2)cc1` [Example 391], the EC50 was more than 100000 nM in test [1]; 11 nM in test [2]; 11.7 nM in test [3]; 45.8 nM in test [4]; 181 nM in test [5]. The “BRET β-Arrestin2 High AT1R Expression Ymax (%)” value in test [3] stood at 78.3%. Also, the “DiscoveRx β-arrestin2 Ymax (%)” value in test [4] was found to be 23.3%.
As for `CCCCc1ncc(C(=O)NCc2cnn(C)c2)n1Cc1ccc(-c2cc(-c3ccccc3)ccc2-c2nn[nH]n2)cc1` [Example 346], in test [1], the “BRET P63 Ymax” value came out at 6.0%. In addition, the EC50 in test [1] was determined as 19.3 nM; in test [2] it was 11.1 nM; in test [3], 7.1 nM; in test [4], 13 nM; in test [5] it was 67.1 nM. Besides, the “BRET β-Arrestin2 High AT1R Expression Ymax (%)” value in test [3] came out at 92.1%. In addition, in test [4], the “DiscoveRx β-arrestin2 Ymax (%)” value was determined as 44.5%.
Consider `CCOc1nc2cccc(C(=O)O)c2n1Cc1ccc(-c2cc(N3CCC[C@@H](C)C3)ccc2-c2nn[nH]n2)cc1` [Example 323], for which the EC50 is more than 10000 nM in test [1], 24.4 nM in test [2], 22.2 nM in test [4] and more than 100000 nM in test [5]. In addition, the “DiscoveRx β-arrestin2 Ymax (%)” value in test [4] came out at 43.2%.
In the case of `CCOc1nc2cccc(C(=O)O)c2n1Cc1ccc(-c2cc(Oc3cccc(OC)c3)ccc2-c2nn[nH]n2)cc1` [Example 332], the EC50 is more than 10000 nM in test [1], 12.1 nM in test [2], 24.1 nM in test [4] and 106 nM in test [5]. Besides, in test [4], the “DiscoveRx β-arrestin2 Ymax (%)” value stood at 30.6%.
`CCc1nc2c(C)cc(C)nc2n1Cc1ccc(-c2cc(-c3ccccc3)ccc2-c2nn[nH]n2)c(F)c1` [Example 265]: in test [1], the “BRET P63 Ymax” value was 17.9%. In addition, the EC50 in test [1] came to 7 nM; in test [2], 18.9 nM; in test [4] it was 30.1 nM; in test [5] it was 29.2 nM. Besides, the “DiscoveRx β-arrestin2 Ymax (%)” value in test [4] amounted to 53.4%.
As for `CCOc1nc2cccc(C(=O)O)c2n1Cc1ccc(-c2cc(Oc3cnccc3C)ccc2-c2nn[nH]n2)cc1` [Example 337], the EC50 in test [1] is more than 10000 nM; in test [2], 631 nM; in test [4], 40.6 nM; in test [5], 55.8 nM. In addition, in test [4], the “DiscoveRx β-arrestin2 Ymax (%)” value was 85.6%.
Take `CCOc1nc2cccc(C(=O)O)c2n1Cc1ccc(-c2cc(Oc3ccccc3F)ccc2-c2nn[nH]n2)cc1` [Example 334]: the “BRET P63 Ymax” value in test [1] was found to be 13.9%. Besides, the EC50 in test [1] was 15.7 nM; in test [2], 5.9 nM; in test [4] it was 10.8 nM; in test [5], 41.3 nM. Further, the “DiscoveRx β-arrestin2 Ymax (%)” value in test [4] worked out at 73.5%.
In the case of `CCOc1nc2cccc(C(=O)O)c2n1Cc1ccc(-c2cc(-c3cnc4ccccc4c3)ccc2-c2nn[nH]n2)cc1` [Example 326, 2-ethoxy-1-((5′-(quinolin-3-yl)-2′-(2H-tetrazol-5-yl)-[1,1′-biphenyl]-4-yl)methyl)-1H-benzo[d]imidazole-7-carboxylic acid], the EC50 is more than 100000 nM in test [1], 24.7 nM in test [2], 9.5 nM in test [4] and 16.2 nM in test [5]. For the same compound, the “DiscoveRx β-arrestin2 Ymax (%)” value in test [4] is on record as 45.9%.
Turning to `CCOc1nc2cccc(C(=O)O)c2n1Cc1ccc(-c2cc(-c3ccccn3)ccc2-c2noc(=O)[nH]2)cc1` [Example 303], the “BRET P63 Ymax” value in test [1] is 30.4%. The EC50 in test [1] is 49.7 nM; in test [2] it was 38.2 nM; in test [4] it was 42.3 nM; in test [5], 109 nM. Moreover, the “DiscoveRx β-arrestin2 Ymax (%)” value in test [4] is on record as 58.9%.

(Values after US12037324B2, “Biarylmethyl heterocycles” (Université de Montréal, priority 2016, dated 2024).)
